What was measured:
[1] = Particle size and polydispersity index of lipid particles (Zetasizer Nano ZS); type: physicochemical; conditions: siRNA lipid particles, lipid 1:DPPC:Chol 45:10:45, named phospholipid as lipid 1; diluted 50-fold with RNase-free water
Experimental: (§1) siRNA was added to 1 mM citrate buffer (pH 4.0), thereby preparing an acidic aqueous solution of siRNA (25° C., siRNA concentration: 71.4 nM). Separately, lipids (lipid 1: DOP-DEDA, DOP-PPZ, or DOR-MPPZ; lipid 2: dipalmitoyl phosphatidylcholine (DPPC); and lipid 3: cholesterol (Chol)) at a molar ratio of 45:10:45 (lipid 1:lipid 2:lipid 3) were added to ethanol, thereby preparing a phospholipid alcohol solution (25° C., lipid concentration: 2.5 mM). A 5-fold volume of the acidic aqueous solution of siRNA was added to the phospholipid alcohol solution (siRNA/lipid molar ratio=1/7000), and a microchannel (KeyChem-Basic, YMC Co., Ltd.) was used to obtain lipid particles. Finally, ethanol was removed by dialysis.
The lipid particles were diluted 50-fold with RNase-free water, and then the particle size and polydispersity index (PDI) were measured with a Zetasizer Nano ZS (Malvern). The lipid. particles were also diluted 50-fold with a buffer (pH=4.0, 5.0, 6.0, or 7.0), and the ζ-potential was then measured.

[2] = siRNA encapsulation efficiency of lipid particles (RiboGreen reagent); type: physicochemical; conditions: lipid 1:DPPC:Chol 45:10:45, siRNA/lipid molar ratio 1/7000, named phospholipid as lipid 1
Experimental: as §1
Further, the encapsulation efficiency of RNA was measured in the following manner. The measurement was performed using an RNA assay reagent (RiboGreen reagent, Thermo Fisher Scientific), specifically as described below. […] The plate was shaken for 5 minutes, and the fluorescence intensity in each well was measured. The encapsulation efficiency of siRNA in the lipid particles was calculated using the following equation: the encapsulation efficiency (%)=(the fluorescence intensity of total siRNA−the fluorescence intensity of free siRNA)/(the fluorescence intensity of total siRNA), with the measured fluorescence intensity.

| Particle size (nm) [1] [nm] | Pdl [1] | siRNA encapsulation efficiency (%)* [2] [%] | Compound |
| --- | --- | --- | --- |
| 79 ± 3 | 0.35 ± 0.01 | 94 ± 4 | CCCCCCCC/C=C\CCCCCCCC(=O)OC[C@H](COP(=O)(O)OCCN1CCNCC1)OC(=O)CCCCCCC/C=C\CCCCCCCC [DOP-PPZ, 1,2-di-(9Z-octadecenoyl)-sn-glycero-3-phosphoethylpiperazine] |
| 100 ± 3 | 0.11 ± 0.06 | 98 ± 7 | Dioleoylphosphate-Diethylenediamine Conjugate [DOP-DEDA, reference compound] |

— patent publication US20230295199A1, “PHOSPHOLIPID” (NIPPON FINE CHEMICAL CO., LTD., priority 2021, published 2023)
